The text below walks through data of ChEMBL document CHEMBL5303573, “Mapping human microbiome drug metabolism by gut bacteria and their genes” (Nature, 2019).

For data set [1] the following is noted: bacteroides fragilis, 12 h, 2 µM.
Description: The drug is tested on Bacteroides fragilis strain: 3397 (T10) for biotransformation. The drug concentrations were measured before and after a 12-h incubation by liquid-chromatography-coupled mass spectrometry (LC–MS)
For data set [2] the following is noted: segatella copri, 12 h, 2 µM.
Description: The drug is tested on Prevotella copri strain: DSM18205 for biotransformation. The drug concentrations were measured before and after a 12-h incubation by liquid-chromatography-coupled mass spectrometry (LC–MS)
A short description of data set [3]: The drug is tested on Clostridium sporogenes strain: ATCC15579 for biotransformation. The drug concentrations were measured before and after a 12-h incubation by liquid-chromatography-coupled mass spectrometry (LC–MS). The conditions noted are these: 2 µM.
Data set [4] in a line: The drug is tested on Bacteroides xylanisolvens strain: DSM18836 for biotransformation. The drug concentrations were measured before and after a 12-h incubation by liquid-chromatography-coupled mass spectrometry (LC–MS). The conditions noted are these: 2 µM.
For data set [5] the following is noted: akkermansia muciniphila, 12 h, 2 µM.
Description: The drug is tested on Akkermansia muciniphila strain: ATCC BAA-835 for biotransformation. The drug concentrations were measured before and after a 12-h incubation by liquid-chromatography-coupled mass spectrometry (LC–MS)
Data set [6] in a line: The drug is tested on Coprococcus comes strain: ATCC27758 for biotransformation. The drug concentrations were measured before and after a 12-h incubation by liquid-chromatography-coupled mass spectrometry (LC–MS). On the set-up: dose 2 uM, timepoint 0 vs 12 hours. The data set is classed as ADME. The conditions noted are these: 2 µM.
Data set [7] is described as follows: The drug is tested on Providencia stuartii strain: ATCC25827 for biotransformation. The drug concentrations were measured before and after a 12-h incubation by liquid-chromatography-coupled mass spectrometry (LC–MS). The conditions noted are these: 2 µM.
Data set [8] can be described thus: The drug is tested on Eubacterium ventriosum strain: ATCC27560 for biotransformation. The drug concentrations were measured before and after a 12-h incubation by liquid-chromatography-coupled mass spectrometry (LC–MS). The conditions noted are these: 2 µM. On the set-up: dose 2 uM, timepoint 0 vs 12 hours. In kind it is ADME.
Data set [9] is described as follows: The drug is tested on Bacteroides fragilis strain: ATCC43859 for biotransformation. The drug concentrations were measured before and after a 12-h incubation by liquid-chromatography-coupled mass spectrometry (LC–MS). The conditions noted are these: 2 µM.
The conditions of data set [10]: bacteroides thetaiotaomicron, 12 h, 2 µM.
Description: The drug is tested on Bacteroides thetaiotaomicron strain: 7330 for biotransformation. The drug concentrations were measured before and after a 12-h incubation by liquid-chromatography-coupled mass spectrometry (LC–MS)
A short description of data set [11]: The drug is tested on Collinsella intestinalis strain: DSM13280 for biotransformation. The drug concentrations were measured before and after a 12-h incubation by liquid-chromatography-coupled mass spectrometry (LC–MS). The conditions noted are these: 2 µM.
The nature of data set [12]: The drug is tested on Blautia hansenii strain: DSM20583 for biotransformation. The drug concentrations were measured before and after a 12-h incubation by liquid-chromatography-coupled mass spectrometry (LC–MS). The conditions noted are these: 2 µM.
The nature of data set [13]: The drug is tested on Bacteroides finegoldii strain: DSM17565 for biotransformation. The drug concentrations were measured before and after a 12-h incubation by liquid-chromatography-coupled mass spectrometry (LC–MS). The conditions noted are these: 2 µM.
The conditions of data set [14]: bacteroides thetaiotaomicron, 12 h, 2 µM. The source holds these as a separate data set.
Description: The drug is tested on Bacteroides thetaiotaomicron strain: 3731 for biotransformation. The drug concentrations were measured before and after a 12-h incubation by liquid-chromatography-coupled mass spectrometry (LC–MS)
Data set [15] in a line: The drug is tested on Blautia luti strain: DSM14534 for biotransformation. The drug concentrations were measured before and after a 12-h incubation by liquid-chromatography-coupled mass spectrometry (LC–MS). The data set is classed as ADME. Also noted: dose 2 uM, timepoint 0 vs 12 hours. The conditions noted are these: 2 µM.
The conditions of data set [16]: enterocloster bolteae, 12 h, 2 µM.
Description: The drug is tested on Clostridium bolteae strain: ATCCBAA-613 for biotransformation. The drug concentrations were measured before and after a 12-h incubation by liquid-chromatography-coupled mass spectrometry (LC–MS)
Data set [17] in a line: The drug is tested on Bacteroides pectinophilus strain: ATCC43243 for biotransformation. The drug concentrations were measured before and after a 12-h incubation by liquid-chromatography-coupled mass spectrometry (LC–MS). The conditions noted are these: 2 µM.
Data set [18] in a line: The drug is tested on Clostridium ramosum strain: DSM1402 for biotransformation. The drug concentrations were measured before and after a 12-h incubation by liquid-chromatography-coupled mass spectrometry (LC–MS). The conditions noted are these: thomasclavelia ramosa, 2 µM.
Data set [19] can be described thus: The drug is tested on Alistipes indistinctus strain: DSM22520 for biotransformation. The drug concentrations were measured before and after a 12-h incubation by liquid-chromatography-coupled mass spectrometry (LC–MS). The conditions noted are these: 2 µM.

Regarding `CCc1cccc2c3c([nH]c12)C(CC)(CC(=O)O)OCC3` (centres undefined) [ETODOLAC], the “Bacterial Biotransformation” value in [1] is reported as “Compound NOT metabolized”; in data set [2], “Compound NOT metabolized”; in data set [3], “Compound NOT metabolized”; in data set [4], “Compound metabolized”; in data set [5] it was “Compound NOT metabolized”; in data set [6], “Compound NOT metabolized”. Further, the “Bacterial Biotransformation” value in [7] is listed as “Compound NOT metabolized”; in [8], “Compound NOT metabolized”; in [9], “Compound metabolized”; in [10], “Compound metabolized”; in data set [11] it was “Compound NOT metabolized”; in [12], “Compound NOT metabolized”. Moreover, the “Bacterial Biotransformation” value in [13], in data set [14], in data set [15], in data set [16] and in data set [17] was “Compound NOT metabolized” throughout.
`CCCc1nc2c(C)cc(-c3nc4ccccc4n3C)cc2n1Cc1ccc(-c2ccccc2C(=O)O)cc1`: the “Bacterial Biotransformation” value is reported as “Compound metabolized” in [4]; “Compound NOT metabolized” in [5]; “Compound NOT metabolized” in data set [18]; “Compound NOT metabolized” in data set [6]; “Compound NOT metabolized” in data set [7]; “Compound NOT metabolized” in [8]. In addition, the results for the “Bacterial Biotransformation” value in [19], in data set [10] and in [13] were “Compound NOT metabolized”, “Compound metabolized” and “Compound NOT metabolized”, respectively.
Consider `CN1CC(=O)N2[C@H](c3ccc4c(c3)OCO4)c3[nH]c4ccccc4c3C[C@@H]2C1=O`, for which the “Bacterial Biotransformation” value in data set [1], in data set [5], in data set [18], in [6], in [8] and in [19] was “Compound NOT metabolized” throughout. Also, the “Bacterial Biotransformation” value in data set [10] was “Compound metabolized”; in data set [11] it was “Compound NOT metabolized”; in data set [13], “Compound NOT metabolized”; in [14], “Compound metabolized”; in data set [15], “Compound NOT metabolized”; in data set [16], “Compound NOT metabolized”. For the same compound, the “Bacterial Biotransformation” value in data set [17] is reported as “Compound NOT metabolized”.
Regarding `CCN1CCCC1CNC(=O)c1cc(S(N)(=O)=O)ccc1OC` (centres undefined) [SULPIRIDE], the “Bacterial Biotransformation” value in data set [3], in data set [4], in data set [5], in data set [18], in data set [6] and in data set [7] was “Compound NOT metabolized” in each case. Moreover, the “Bacterial Biotransformation” value in data set [8], in data set [19], in [11], in [12], in data set [13] and in data set [15] was “Compound NOT metabolized” each time. Moreover, the “Bacterial Biotransformation” value in [16] and in data set [17] was “Compound NOT metabolized” each time.
Regarding `CC(O)(CS(=O)(=O)c1ccc(F)cc1)C(=O)Nc1ccc(C#N)c(C(F)(F)F)c1` (centres undefined) [BICALUTAMIDE], the “Bacterial Biotransformation” value in data set [1], in [2], in [3], in data set [4], in data set [5] and in data set [18] was “Compound NOT metabolized” throughout. Also, the “Bacterial Biotransformation” value in [6], in data set [7], in data set [8], in data set [10], in data set [11] and in data set [12] was “Compound NOT metabolized” each time. Besides, the “Bacterial Biotransformation” value in data set [13], in [14], in data set [15], in data set [16] and in [17] was “Compound NOT metabolized” in each case.
Turning to `CN(CCOc1ccc(CC2SC(=O)NC2=O)cc1)c1ccccn1.O=C(O)/C=C\C(=O)O` (centres undefined) [ROSIGLITAZONE MALEATE], the “Bacterial Biotransformation” value in data set [1], in data set [2], in [3], in data set [4], in [5] and in data set [6] was “Compound NOT metabolized” in each case. Further, the “Bacterial Biotransformation” value in data set [7], in [8], in data set [10], in data set [11], in data set [12] and in data set [13] was “Compound NOT metabolized” in each case. Moreover, the “Bacterial Biotransformation” value in data set [14], in data set [15], in data set [16] and in data set [17] was “Compound NOT metabolized” each time.
On to `CNS(=O)(=O)Cc1ccc2[nH]cc(CCN(C)C)c2c1.O=C(O)CCC(=O)O` [SUMATRIPTAN SUCCINATE], for which the “Bacterial Biotransformation” value in data set [2], in [3], in data set [4], in [5], in data set [18] and in data set [6] was “Compound NOT metabolized” each time. The “Bacterial Biotransformation” value in data set [7], in [8], in data set [19], in [11], in [12] and in [13] was “Compound NOT metabolized” in each case. Moreover, the “Bacterial Biotransformation” value in data set [15], in data set [16] and in data set [17] was “Compound NOT metabolized” throughout.
As for `COc1ccc(CN2CCNCC2)c(OC)c1OC.Cl.Cl` [TRIMETAZIDINE DIHYDROCHLORIDE], the “Bacterial Biotransformation” value is listed as “Compound metabolized” in data set [1]; “Compound NOT metabolized” in [2]; “Compound NOT metabolized” in [3]; “Compound metabolized” in data set [4]; “Compound NOT metabolized” in data set [5]; “Compound NOT metabolized” in [18]. The “Bacterial Biotransformation” value was “Compound NOT metabolized” in data set [6]; “Compound NOT metabolized” in data set [7]; “Compound NOT metabolized” in [8]; “Compound NOT metabolized” in data set [19]; “Compound metabolized” in [10]; “Compound NOT metabolized” in data set [11]. In addition, the “Bacterial Biotransformation” value in data set [12] is on record as “Compound NOT metabolized”; in [13], “Compound NOT metabolized”; in data set [14], “Compound metabolized”; in [15], “Compound NOT metabolized”; in data set [16], “Compound NOT metabolized”; in [17], “Compound NOT metabolized”.
